The experiment has as its target T1, PrapGr28 (Pieris rapae, UniProt Z9RYY0XAY3).
T1 construct: also UAS-PrapGr28 in Drosophila Gr5a sweet neurons; oligomer unknown
T1 sequence (Z9RYY0XAY3 1-399): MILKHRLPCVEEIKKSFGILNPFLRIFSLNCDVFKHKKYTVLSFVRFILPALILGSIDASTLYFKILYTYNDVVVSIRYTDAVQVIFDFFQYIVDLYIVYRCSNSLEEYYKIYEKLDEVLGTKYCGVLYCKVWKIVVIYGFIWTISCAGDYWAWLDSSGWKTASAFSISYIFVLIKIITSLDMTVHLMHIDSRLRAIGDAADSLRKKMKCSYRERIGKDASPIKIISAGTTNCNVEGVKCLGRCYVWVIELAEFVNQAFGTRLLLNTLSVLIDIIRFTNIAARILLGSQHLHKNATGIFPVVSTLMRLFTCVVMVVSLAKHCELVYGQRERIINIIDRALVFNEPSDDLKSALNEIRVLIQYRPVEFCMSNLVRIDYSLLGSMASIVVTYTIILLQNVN
Briefly: two-electrode voltage clamp, inward current in Xenopus oocytes. The format is cell-based. Conditions: agonist; PrapGr28 expressed alone; holding potential -80 mV; 0.1-50 mM dose range; also tip recording of Drosophila L-type sensilla expressing PrapGr28. The text has this: two-electrode voltage clamp, inward current in Xenopus oocytes on […]28 | the oocytes expressing […]28 selectively responded to sinigrin
For orientation: Two-electrode voltage clamp holds a large cell at a set potential and records current.

Regarding `C=CC/C(=N/OS(=O)(=O)O)S[C@@H]1O[C@H](CO)[C@@H](O)[C@H](O)[C@H]1O` [sinigrin], the “inward current response at 1 mM” value is recorded as “the oocytes expressing PrapGr28 selectively responded to sinigrin”.
